Legend:
[1] = tested on: barley; test: Herbicidal bioassay, barley (% necrosis); format: in vivo
Description: (§1) A laboratory bioassay was conducted to screen ten compounds (Fluazifop (25); Ethyl fluazifop (62); five fluazifop analogues: 27, 28, 63, 64 and 65; mesofulfuron (6); and two mesosulfuron analogues: 8 and 61. for activity against Lolium perenne, barley, peas and Chinese cabbage. Compounds were diluted in DMSO. Controls were performed using both DMSO and water.
(§2) Plants were obtained as seeds and were grown to the 2-4 true leaf stage. Plants were grown individually in seed trays. Each plant (in an approximately 3 cm diameter plug) was then detached from the tray for spraying. Environmental conditions were closely monitored and recorded and were within the optimal range of the target species.
(§3) The compounds were screened at a range of six concentrations, eg. 0.05%, 0.01%, 0.005%, 0.001%, 0.0005% and 0.0001%. Treatments will be applied directly onto the plants, using a potter tower.
(§4) One plant of each type will be sprayed using a potter tower. The 4 different types of weeds will be placed in a 10 cm diameter area underneath the potter sprayer and sprayed simultaneously. The growth of the plants and any Phytotoxicity effects will then be assessed at specified growth intervals, according to EPPO guideline PP1/135. Five replicates will be performed for each treatment, for each species.

[2] = tested on: peas; test: Herbicidal bioassay, peas (% necrosis); format: in vivo
Description: as §1, §2, §3, §4

CC(CO)Oc1ccc(Oc2ccc(C(F)(F)F)cn2)cc1 (stereo not drawn) [Compound 27, 2-[4-[[5-(Trifluoromethyl)-2-pyridyl]oxy]phenoxy]propan-1-ol]
C (less than 50% necrosis): Sum of % necrosis in barley ([1]; Dose 0.000001, Day 0) | Sum of % necrosis in barley ([1]; Dose 0.000001, Day 3) | Sum of % necrosis in barley ([1]; Dose 0.000001, Day 7) | Sum of % necrosis in barley ([1]; Dose 0.000001, Day 10) | Sum of % necrosis in barley ([1]; Dose 0.000001, Day 14) | Sum of % necrosis in barley ([1]; Dose 0.000001, Day 21) | Sum of % necrosis in barley ([1]; Dose 0.000005, Day 0) | Sum of % necrosis in barley ([1]; Dose 0.000005, Day 3) | Sum of % necrosis in barley ([1]; Dose 0.000005, Day 7) | Sum of % necrosis in barley ([1]; Dose 0.000005, Day 10) | Sum of % necrosis in barley ([1]; Dose 0.000005, Day 14) | Sum of % necrosis in barley ([1]; Dose 0.000005, Day 21) | Sum of % necrosis in barley ([1]; Dose 0.00001, Day 0) | Sum of % necrosis in barley ([1]; Dose 0.00001, Day 3) | Sum of % necrosis in barley ([1]; Dose 0.00001, Day 7) | Sum of % necrosis in barley ([1]; Dose 0.00001, Day 10) | Sum of % necrosis in barley ([1]; Dose 0.00001, Day 14) | Sum of % necrosis in barley ([1]; Dose 0.00001, Day 21) | Sum of % necrosis in barley ([1]; Dose 0.00005, Day 0) | Sum of % necrosis in barley ([1]; Dose 0.00005, Day 3) | Sum of % necrosis in barley ([1]; Dose 0.00005, Day 7) | Sum of % necrosis in barley ([1]; Dose 0.00005, Day 10) | Sum of % necrosis in barley ([1]; Dose 0.00005, Day 14) | Sum of % necrosis in barley ([1]; Dose 0.00005, Day 21) | Sum of % necrosis in barley ([1]; Dose 0.0001, Day 0) | Sum of % necrosis in barley ([1]; Dose 0.0001, Day 3) | Sum of % necrosis in barley ([1]; Dose 0.0001, Day 7) | Sum of % necrosis in barley ([1]; Dose 0.0001, Day 10) | Sum of % necrosis in barley ([1]; Dose 0.0001, Day 14) | Sum of % necrosis in barley ([1]; Dose 0.0001, Day 21) | Sum of % necrosis in barley ([1]; Dose 0.0005, Day 0) | Sum of % necrosis in barley ([1]; Dose 0.0005, Day 3) | Sum of % necrosis in barley ([1]; Dose 0.0005, Day 7) | Sum of % necrosis in barley ([1]; Dose 0.0005, Day 10) | Sum of % necrosis in barley ([1]; Dose 0.0005, Day 14) | Sum of % necrosis in barley ([1]; Dose 0.0005, Day 21) | Sum of % necrosis in Peas ([2]; Dose 0.000001, Day 0) | Sum of % necrosis in Peas ([2]; Dose 0.000001, Day 1) | Sum of % necrosis in Peas ([2]; Dose 0.000001, Day 3) | Sum of % necrosis in Peas ([2]; Dose 0.000001, Day 7) | Sum of % necrosis in Peas ([2]; Dose 0.000001, Day 10) | Sum of % necrosis in Peas ([2]; Dose 0.000001, Day 14) | Sum of % necrosis in Peas ([2]; Dose 0.000001, Day 21) | Sum of % necrosis in Peas ([2]; Dose 0.000005, Day 0) | Sum of % necrosis in Peas ([2]; Dose 0.000005, Day 1) | Sum of % necrosis in Peas ([2]; Dose 0.000005, Day 3) | Sum of % necrosis in Peas ([2]; Dose 0.000005, Day 7) | Sum of % necrosis in Peas ([2]; Dose 0.000005, Day 10) | Sum of % necrosis in Peas ([2]; Dose 0.000005, Day 14) | Sum of % necrosis in Peas ([2]; Dose 0.000005, Day 21) | Sum of % necrosis in Peas ([2]; Dose 0.00001, Day 0) | Sum of % necrosis in Peas ([2]; Dose 0.00001, Day 1) | Sum of % necrosis in Peas ([2]; Dose 0.00001, Day 3) | Sum of % necrosis in Peas ([2]; Dose 0.00001, Day 7) | Sum of % necrosis in Peas ([2]; Dose 0.00001, Day 10) | Sum of % necrosis in Peas ([2]; Dose 0.00001, Day 14) | Sum of % necrosis in Peas ([2]; Dose 0.00001, Day 21) | Sum of % necrosis in Peas ([2]; Dose 0.00005, Day 0) | Sum of % necrosis in Peas ([2]; Dose 0.00005, Day 1) | Sum of % necrosis in Peas ([2]; Dose 0.00005, Day 3) | Sum of % necrosis in Peas ([2]; Dose 0.00005, Day 7) | Sum of % necrosis in Peas ([2]; Dose 0.00005, Day 10) | Sum of % necrosis in Peas ([2]; Dose 0.00005, Day 14) | Sum of % necrosis in Peas ([2]; Dose 0.00005, Day 21) | Sum of % necrosis in Peas ([2]; Dose 0.0001, Day 0) | Sum of % necrosis in Peas ([2]; Dose 0.0001, Day 1) | Sum of % necrosis in Peas ([2]; Dose 0.0001, Day 3) | Sum of % necrosis in Peas ([2]; Dose 0.0001, Day 7) | Sum of % necrosis in Peas ([2]; Dose 0.0001, Day 10) | Sum of % necrosis in Peas ([2]; Dose 0.0001, Day 14) | Sum of % necrosis in Peas ([2]; Dose 0.0001, Day 21) | Sum of % necrosis in Peas ([2]; Dose 0.0005, Day 0) | Sum of % necrosis in Peas ([2]; Dose 0.0005, Day 1) | Sum of % necrosis in Peas ([2]; Dose 0.0005, Day 3) | Sum of % necrosis in Peas ([2]; Dose 0.0005, Day 7) | Sum of % necrosis in Peas ([2]; Dose 0.0005, Day 10) | Sum of % necrosis in Peas ([2]; Dose 0.0005, Day 14) | Sum of % necrosis in Peas ([2]; Dose 0.0005, Day 21)

Reference: US20150094474A1, “AGRICULTURAL CHEMICALS” (Redx Pharma Ltd., priority 2012, published 2015)
